Measured values from patent EP4803511A1, “SMALL MOLECULE COMPOUND HAVING SULFONIC ACID OR SULFINIC ACID LACTONE STRUCTURE, COMPOSITION AND USE THEREOF” (Hangzhou Phecdamed Co., Ltd., priority 2023, dated 2025).

What was measured:
[1] = test system: wild-type AB strain zebrafish; test: Zebrafish model, relieving anti-inflammatory efficacy (copper sulfate-induced, inflammatory cells at the neurothalamus); format: in vivo; conditions: zebrafish 3 dpf, 40 µM copper sulfate model; effective concentrations 7.4, 22.2, and 66.6 µg/mL
Protocol: (§1) Experimental animal: Healthy wild-type AB strain zebrafish at 3 dpf (days post fertilization)
Evaluation of the relieving stinging efficacy: Healthy AB strain zebrafish were taken and randomly divided into four groups: blank control, modeling group, positive control, and sample group. […] After continuous treatment for a certain period, the zebrafish's behavioral trajectories were recorded using a behavior analyzer, and the changes in total movement distance and speed were statistically analyzed, the results are shown in FIGS. 2-4. […]
Evaluation of the relieving anti-inflammatory efficacy: As described above, the modeling drug was 40 µM copper sulfate, the positive control drug was 200 µM asiaticoside, and the concentrations of I-8 were 66.6, 22.2, and 7.4 µg/mL respectively. After treating zebrafish as described above, inflammatory cells in their bodies were stained, the number of inflammatory cells at the neurothalamus was counted, and statistical analysis was performed.

[2] = test system: wild-type AB strain zebrafish; test: Zebrafish model, relieving stinging efficacy (SDS-induced, movement distance and speed); format: in vivo; conditions: zebrafish 3 dpf, 100 µM SDS model; effective concentrations 22.2, 66.6, and 200 µg/mL
Protocol: as §1
Evaluation of the relieving stinging efficacy: Healthy AB strain zebrafish were taken and randomly divided into four groups: blank control, modeling group, positive control, and sample group. The zebrafish in the blank control group were treated with embryo culture water; the zebrafish in the modeling group were treated with a modeling drug (100 µM SDS , sodium dodecyl sulfate); the zebrafish in the positive control group were treated with both the modeling agent and a positive control drug (200 µM asiaticoside solution); and the zebrafish in the sample group were treated with both the modeling drug and different concentrations of the test sample (high, medium, and low concentrations). After continuous treatment for a certain period, the zebrafish's behavioral trajectories were recorded using a behavior analyzer, and the changes in total movement distance and speed were statistically analyzed, the results are shown in FIGS. 2-4. […] In the behavioral trajectory diagram in FIG. 2, the black lines represent the zebrafish's behavioral trajectories in the hole; the more numerous and chaotic the lines, the more vigorous the movement of the zebrafish.

[3] = test system: wild-type AB strain zebrafish; test: Zebrafish tail amputation model, inflammatory repair efficacy (inflammatory cells at the broken tail); format: in vivo; conditions: I-8 at 1, 3, and 9 µg/mL, 48 hrs; compared with the modeling group, statistical significance
Protocol: as §1
Evaluation of wound repair efficacy: Healthy AB strain zebrafish were taken as experimental animal, and randomly divided into blank control group, modeling group, positive control group, and sample group. The zebrafish in the blank control group were treated with culture water; the zebrafish in the modeling group were treated with culture water after cutting the caudal fin; the zebrafish in the positive control group and sample group were treated with 600 µg/mL hyaluronic acid and I-8 with different concentrations (1, 3, 9 µg/mL) respectively after cutting the caudal fin. The larva fish in above groups were placed in a constant temperature incubator at 28.5 °C and kept in continuous darkness for 48 hrs, with the culture medium changed once every 24 hrs. […] The data were statistically analyzed using GraphPad software.
Evaluation of inflammatory repair efficacy: As described above, the larva fish in each group were placed in a constant temperature incubator at 28.5 °C and kept in continuous darkness for 48 hrs. Inflammatory cells in the fish body were labeled with neutral red, and the number of inflammatory cells at the broken tail was counted. The data were statistically analyzed using GraphPad software.

[4] = test system: reactive oxygen species (ROS); test: Zebrafish oxidative aging model (menadione), ROS content; format: in vivo; conditions: I-8 at 22.2 µg/mL, 22 hrs, 4 µM menadione; compared with the modeling group, statistical significance
Protocol: Experimental animal: Healthy wild-type AB strain zebrafish at 48 hpf (hours post-fertilization)
Healthy AB strain zebrafish were taken as experimental animal. A zebrafish oxidative aging model was constructed using chemical mutagenesis with 4 µM menadione as the modeling drug. Fucoxanthin was used as a positive control compound. After treating the zebrafish oxidative aging model with different concentrations of I-8 for 22 hrs, changes in the reactive oxygen species (ROS) content, β-galactosidase activity, and the expression of three antioxidant and anti-aging related genes (Cu/Zn-sod, Mn-sod, and ampk) were respectively detected and statistically analyzed.
During the experiment, the modeling drug, positive compound, and I-8 were dispersed together in the culture water of zebrafish. […] Cell ROX™ Deep Red fluorescent probes and β-galactosidase staining kits were used to specifically label ROS and β-galactosidase in the fish, respectively, and the staining intensity was quantified using Image-Pro Plus software. After extracting RNA from the whole fish, the expression changes of three genes (Cu/Zn-sod, Mn-sod, and ampk) in the fish were detected at the mRNA level using Quantitative Real-time PCR (RT-qPCR). The data were statistically analyzed using GraphPad software.

COL7A1 = test: Collagen VII gene expression in HaCaT human immortalized keratinocytes; format: cell-based; conditions: 24 hrs, dose-dependent
From the text: Skin fragility is partly attributed to changes in hemidesmosomes and the expression downregulation of various collagen proteins (Collagen I, III, IV, VII) or laminins (such as LN-5) at the dermal-epidermal junction. LN-5 has been proven to be a component of anchoring fibers in the basement membrane of the skin, cornea, conjunctiva, and other tissues. LN-5 participates in cell-cell interactions through the mediation of integrins and proteoglycans, thereby playing a crucial role in cell adhesion, growth, migration, and differentiation. The appearance of wrinkles is closely related to the normal synthesis and expression of collagen and laminins. Therefore, the increase of the above collagen content and LN-5 can achieve a certain role in resisting wrinkles, and plays an important role in the aging process of the skin. Therefore, the anti-wrinkle effect of the compound to be tested was evaluated by detecting the level of Collage I protein of […] by ELISA, and detecting the transcription levels of epidermal cells (keratinocytes) III, IV, VII and LN -5 by Real-Time PCR. The following Test Examples 8-1 and 8-2 evaluated the anti-wrinkle efficacy of compounds using HaCaT human immortalized keratinocytes and HSF human skin fibroblasts. […]

`O=S1(=O)Oc2cc(O)ccc2-c2ccc(O)cc21` [Compound I-8] was tested, and the relieving anti-inflammatory efficacy [1] was “certain relieving anti-inflammatory efficacy”, the relieving stinging efficacy [2] was “certain relieving stinging efficacy” and the “number of inflammatory cells at the wound” value [3] was “decreased”. The ROS content [4] was “downregulated” and the COL7A1 gene expression (COL7A1) was “upregulate”.
